Laboratory results reported in EP0499926B1, “2-Substituted quinolines, process for their preparation as well as their use in medicaments” (BAYER AG, priority 1991, dated 1992).

test system: 5-LO; assay: Lipoxygenase inhibition: release of leukotriene B4 (LTB4) from human polymorphonuclear leukocytes (PMN) after addition of substance and Ca ionophore, reverse phase HPLC; assay type: cell-based; details: polymorphkernige Humanleukozyten (PMN), Ca-Ionophor
From the text: Die pharmakologischen Wirkungen der erfindungsgemäßen Substanzen werden durch folgende Methode bestimmt:
Als Maß für die Lipoxyenase-Hemmung wurde die Freisetzung von Leukotrien B4 (LTB4) an polymorphkernigen Humanleukozyten (PMN) nach Zugabe von Substanzen und Ca-Ionophor mittels reverse phase HPLC nach Borgeat, P. et al., Proc. Nat. Acad. Sci, 76, 2148 -2152 (1979), bestimmt.
In der Tabelle 1 sind beispielhaft die nach diesem Test erzielten Werte einiger erfindungsgemäßer Verbindungen aufgeführt: Tabelle 1

Row | SMILES | IC50
1 | O=C(O)C(c1ccc(OCc2ccc3ccccc3n2)c(F)c1)C1CCCC1 (stereo not shown) [Beispiel 27, 2-[3-Fluor-4-(chinolin-2-yl-methoxy)phenyl]-2-cyclopentylessigsäure] | 690 nM
2 | O=C(O)C(c1ccc(OCc2ccc3ccccc3n2)c(-n2cccc2)c1)C1CCCCCC1 (stereo not shown) [Beispiel 40] | 790 nM
3 | C=Cc1cc(C(C(=O)O)C2CCCC2)ccc1OCc1ccc2ccccc2n1 (stereo not shown) [Beispiel 41] | 560 nM
4 | COC(=O)C(c1ccc(OCc2ccc3ccccc3n2)c(F)c1)C1CCCC1 (stereo not shown) [Beispiel 1, 2-[3-Fluor4-(chinolin-2-methoxy)phenyl]-2-cyclopentylessigsäuremethylester] | 2500 nM
